Common to all, as to assay: antibacterial activity (MIC), broth dilution method
Assay type in all cases: cell-based
(In broth dilution the organism is exposed to a series of concentrations in liquid medium.)

The test system of one test is E. coli, NIHJ. The conditions noted are these: Escherichia coli, Muller-Hinton broth, 10^5 /ml bacteria, 37° C., 18 hours, read-out: Minimal Inhibitory Concentration (MIC). How it is done: (§1) On some of the compounds according to the present invention, the antibacterial activity was determined by broth dilution method in Muller-Hinton broth in which 10^5 /ml of bacteria were seaded and incubated at 37° C. for 18 hours.

The subject of a further test is S. aureus, 209P. Conditions: Staphylococcus aureus, Muller-Hinton broth, 10^5 /ml bacteria, 37° C., 18 hours, read-out: Minimal Inhibitory Concentration (MIC). How it is done:
as §1

Another test concerns Ps. aeruginosa, 32233. Conditions: Pseudomonas aeruginosa, Muller-Hinton broth, 10^5 /ml bacteria, 37° C., 18 hours, read-out: Minimal Inhibitory Concentration (MIC). As for the experimental part: as §1
The subject of a further test is Ent. cloacae, 03400. Conditions: Enterobacter cloacae, Muller-Hinton broth, 10^5 /ml bacteria, 37° C., 18 hours, read-out: Minimal Inhibitory Concentration (MIC). As for the experimental part:
as §1

The subject of another test is Ser. Marcescens, 10104. The conditions noted are these: Serratia marcescens, Muller-Hinton broth, 10^5 /ml bacteria, 37° C., 18 hours, read-out: Minimal Inhibitory Concentration (MIC). As for the experimental part: as §1

Each structure is given as a SMILES string. Values after ≈ are worked out from the molar mass of the structure shown. Where only a bound is given, the exact number is not on record here.

For the compound `CC(O)C1C(=O)N2C(C(=O)[O-])=C(SC3CCn4c[n+](C)cc43)SC12` (single isomer, unassigned) [B], the MIC was 0.1 µg/mL (≈ 0.272 µM) in the test with E. coli, NIHJ; at most 0.05 µg/mL in the test with S. aureus, 209P; 0.78 µg/mL (≈ 2.12 µM) with Ps. aeruginosa, 32233; 0.2 µg/mL (≈ 0.544 µM) with Ent. cloacae, 03400; 0.78 µg/mL (≈ 2.12 µM) in the test with Ser. Marcescens, 10104.

`CC(O)C1C(=O)N2C(C(=O)O)=C(SC3Cc4nncn4C3)SC12` [A, (5R, 6S, 8R)-6-(1-hydroxyethyl)-2-[(6,7-dihydro-5H-pyrrolo[(2,1-c]-1,2,4-triazol-6-yl)thio]-2-penem-3-carboxylic acid]: the MIC was at most 0.05 µg/mL in the test with E. coli, NIHJ; at most 0.05 µg/mL with S. aureus, 209P; 25 µg/mL (≈ 70.5 µM) with Ps. aeruginosa, 32233; 0.39 µg/mL (≈ 1.1 µM) in the test on Ent. cloacae, 03400; 0.78 µg/mL (≈ 2.2 µM) with Ser. Marcescens, 10104.

For `CC(O)C1C(=O)N2C(C(=O)O)=C(SCCOC(N)=O)SC12` (stereo not drawn) [Sch 34343, reference compound], the MIC worked out at 0.39 µg/mL (≈ 1.17 µM) in the test on E. coli, NIHJ; 0.1 µg/mL (≈ 0.299 µM) in the test with S. aureus, 209P; 100 µg/mL (≈ 299 µM) in the test with Ps. aeruginosa, 32233; 0.78 µg/mL (≈ 2.33 µM) with Ent. cloacae, 03400; 3.13 µg/mL (≈ 9.36 µM) in the test with Ser. Marcescens, 10104.

Source of the values: patent US5079357A, “Derivatives of penem” (Daiichi Pharmaceutical Co., Ltd., priority 1985, dated 1992).
